In ChEMBL document CHEMBL3991601, “The target landscape of clinical kinase drugs” (Science, 2017):
Active and inactive are the calls of the source.

How the values were obtained:
[1] = biological target: T1, Isoleucine--tRNA ligase, mitochondrial (Homo sapiens, UniProt Q9NSE4)
T1 sequence (Q9NSE4 whole entry): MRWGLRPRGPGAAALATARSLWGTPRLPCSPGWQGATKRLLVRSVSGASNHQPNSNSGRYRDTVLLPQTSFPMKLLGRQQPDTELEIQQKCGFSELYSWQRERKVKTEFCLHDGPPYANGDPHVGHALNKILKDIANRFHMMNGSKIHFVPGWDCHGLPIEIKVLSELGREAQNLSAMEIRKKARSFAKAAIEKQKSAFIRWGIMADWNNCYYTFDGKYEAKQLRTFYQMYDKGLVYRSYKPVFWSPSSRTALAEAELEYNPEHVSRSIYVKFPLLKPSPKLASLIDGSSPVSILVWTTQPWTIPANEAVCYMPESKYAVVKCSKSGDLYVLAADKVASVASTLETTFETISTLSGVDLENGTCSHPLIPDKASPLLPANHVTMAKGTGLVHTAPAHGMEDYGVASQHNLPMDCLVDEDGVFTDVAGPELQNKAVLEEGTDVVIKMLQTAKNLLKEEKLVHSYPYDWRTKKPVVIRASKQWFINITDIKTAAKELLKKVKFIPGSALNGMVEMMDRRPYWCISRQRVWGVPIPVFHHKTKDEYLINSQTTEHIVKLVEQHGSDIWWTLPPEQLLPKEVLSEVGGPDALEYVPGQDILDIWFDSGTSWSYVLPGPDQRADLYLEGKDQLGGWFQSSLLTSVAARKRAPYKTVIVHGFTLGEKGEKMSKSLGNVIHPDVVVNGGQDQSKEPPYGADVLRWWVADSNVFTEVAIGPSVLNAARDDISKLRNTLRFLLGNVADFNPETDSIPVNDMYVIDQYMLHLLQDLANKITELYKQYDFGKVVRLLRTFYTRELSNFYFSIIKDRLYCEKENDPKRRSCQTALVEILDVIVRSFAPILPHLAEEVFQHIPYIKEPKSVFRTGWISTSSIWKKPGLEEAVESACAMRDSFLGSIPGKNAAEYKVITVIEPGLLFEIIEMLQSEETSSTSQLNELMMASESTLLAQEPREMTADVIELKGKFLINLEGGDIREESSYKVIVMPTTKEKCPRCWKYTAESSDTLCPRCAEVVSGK

[2] = biological target: Eukaryotic peptide chain release factor GTP-binding subunit ERF3B (Homo sapiens, UniProt Q8IYD1)
[3] = biological target: ALK tyrosine kinase receptor (Homo sapiens, UniProt Q9UM73); assay type: subcellular, K-562, COLO 205, SK-N-BE(2) and MV-4-11, Cell lysate; conditions: read-out: Kd apparent
[4] = biological target: Serine/threonine-protein kinase 38 (Homo sapiens, UniProt Q15208)
[5] = biological target: Serine/threonine-protein kinase 24 (Homo sapiens, UniProt Q9Y6E0)
[6] = biological target: Serine/threonine-protein kinase ATR (Homo sapiens, UniProt Q13535)
[7] = biological target: Serine/threonine-protein kinase pim-2 (Homo sapiens, UniProt Q9P1W9)
[8] = biological target: T2, Dual specificity mitogen-activated protein kinase kinase 4 (Homo sapiens, UniProt P45985)
T2 sequence (P45985 whole entry): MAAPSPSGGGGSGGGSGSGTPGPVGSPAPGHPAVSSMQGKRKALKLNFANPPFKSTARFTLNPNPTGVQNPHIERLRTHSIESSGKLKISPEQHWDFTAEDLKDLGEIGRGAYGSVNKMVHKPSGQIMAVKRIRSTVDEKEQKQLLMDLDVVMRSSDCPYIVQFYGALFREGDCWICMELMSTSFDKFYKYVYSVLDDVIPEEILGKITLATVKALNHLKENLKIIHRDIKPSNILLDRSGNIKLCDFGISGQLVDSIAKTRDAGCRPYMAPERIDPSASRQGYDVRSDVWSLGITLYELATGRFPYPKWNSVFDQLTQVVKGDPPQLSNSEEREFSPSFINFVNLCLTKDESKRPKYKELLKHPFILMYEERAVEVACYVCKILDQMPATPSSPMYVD

[9] = biological target: Nucleoside diphosphate kinase B (Homo sapiens, UniProt P22392)
[10] = biological target: Cyclin-dependent kinase 10 (Homo sapiens, UniProt Q15131)
[11] = biological target: Dual specificity testis-specific protein kinase 2 (Homo sapiens, UniProt Q96S53)
[12] = biological target: Tyrosine-protein kinase JAK2 (Homo sapiens, UniProt O60674)
[13] = biological target: Activin receptor type-1-like (Homo sapiens, UniProt P37023)
[14] = biological target: Tyrosine-protein kinase Fgr (Homo sapiens, UniProt P09769)
[15] = biological target: Dual specificity tyrosine-phosphorylation-regulated kinase 1B (Homo sapiens, UniProt Q9Y463)
[16] = biological target: Cyclin-dependent kinase 18 (Homo sapiens, UniProt Q07002)
Also: in the data inactive means no Kd found up to 30 µM.

Serine/threonine-protein kinase pim-2, sequence (Q9P1W9 whole entry): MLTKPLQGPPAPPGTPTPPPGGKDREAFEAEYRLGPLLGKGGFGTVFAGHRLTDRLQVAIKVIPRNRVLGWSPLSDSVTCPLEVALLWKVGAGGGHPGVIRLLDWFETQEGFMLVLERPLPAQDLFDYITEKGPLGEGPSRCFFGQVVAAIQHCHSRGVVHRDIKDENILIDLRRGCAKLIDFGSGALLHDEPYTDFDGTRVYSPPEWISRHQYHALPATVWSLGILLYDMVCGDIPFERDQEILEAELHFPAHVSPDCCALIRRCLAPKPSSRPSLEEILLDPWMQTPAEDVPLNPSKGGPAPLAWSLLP
ALK tyrosine kinase receptor, sequence (Q9UM73 whole entry): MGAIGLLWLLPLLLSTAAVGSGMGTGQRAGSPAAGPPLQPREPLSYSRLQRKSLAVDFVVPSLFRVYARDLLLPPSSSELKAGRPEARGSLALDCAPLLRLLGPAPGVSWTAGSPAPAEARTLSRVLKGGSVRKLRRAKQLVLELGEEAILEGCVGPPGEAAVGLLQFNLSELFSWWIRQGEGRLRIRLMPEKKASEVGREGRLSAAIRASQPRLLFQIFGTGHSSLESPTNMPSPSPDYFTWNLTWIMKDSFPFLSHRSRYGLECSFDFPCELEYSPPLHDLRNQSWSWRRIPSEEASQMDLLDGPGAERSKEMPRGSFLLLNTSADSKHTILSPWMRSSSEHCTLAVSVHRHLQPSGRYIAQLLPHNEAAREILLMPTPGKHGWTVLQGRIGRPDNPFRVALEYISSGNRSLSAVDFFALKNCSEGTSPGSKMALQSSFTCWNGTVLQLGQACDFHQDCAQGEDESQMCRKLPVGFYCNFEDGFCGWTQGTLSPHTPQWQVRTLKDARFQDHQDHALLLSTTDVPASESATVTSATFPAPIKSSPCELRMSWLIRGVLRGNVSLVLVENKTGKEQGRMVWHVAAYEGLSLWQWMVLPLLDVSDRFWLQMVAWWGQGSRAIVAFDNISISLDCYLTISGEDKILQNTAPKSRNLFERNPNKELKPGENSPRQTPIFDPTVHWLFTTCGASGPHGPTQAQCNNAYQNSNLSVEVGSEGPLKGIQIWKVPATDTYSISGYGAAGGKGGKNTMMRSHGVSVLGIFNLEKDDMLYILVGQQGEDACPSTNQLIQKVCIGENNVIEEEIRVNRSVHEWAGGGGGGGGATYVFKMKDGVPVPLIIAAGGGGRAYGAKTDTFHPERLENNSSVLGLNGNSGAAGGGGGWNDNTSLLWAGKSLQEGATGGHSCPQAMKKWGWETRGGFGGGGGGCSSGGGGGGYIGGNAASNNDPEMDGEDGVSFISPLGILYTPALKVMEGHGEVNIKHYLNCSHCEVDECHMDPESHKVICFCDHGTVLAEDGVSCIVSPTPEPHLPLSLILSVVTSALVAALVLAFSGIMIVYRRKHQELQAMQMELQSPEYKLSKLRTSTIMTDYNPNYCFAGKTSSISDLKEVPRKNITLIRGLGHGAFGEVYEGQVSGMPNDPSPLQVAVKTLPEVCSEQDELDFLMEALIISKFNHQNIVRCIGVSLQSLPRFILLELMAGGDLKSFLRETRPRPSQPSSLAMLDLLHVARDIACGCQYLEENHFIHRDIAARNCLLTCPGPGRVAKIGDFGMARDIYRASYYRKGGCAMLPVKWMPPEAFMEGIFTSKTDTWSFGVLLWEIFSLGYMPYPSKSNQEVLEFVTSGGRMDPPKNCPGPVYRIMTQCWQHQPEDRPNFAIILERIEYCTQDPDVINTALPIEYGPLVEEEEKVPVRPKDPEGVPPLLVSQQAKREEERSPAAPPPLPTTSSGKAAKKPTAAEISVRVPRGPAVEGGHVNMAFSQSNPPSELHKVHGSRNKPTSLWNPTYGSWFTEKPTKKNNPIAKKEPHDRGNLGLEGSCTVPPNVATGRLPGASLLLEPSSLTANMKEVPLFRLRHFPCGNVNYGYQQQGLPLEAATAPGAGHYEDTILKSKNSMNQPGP
Dual specificity tyrosine-phosphorylation-regulated kinase 1B, sequence (Q9Y463 whole entry): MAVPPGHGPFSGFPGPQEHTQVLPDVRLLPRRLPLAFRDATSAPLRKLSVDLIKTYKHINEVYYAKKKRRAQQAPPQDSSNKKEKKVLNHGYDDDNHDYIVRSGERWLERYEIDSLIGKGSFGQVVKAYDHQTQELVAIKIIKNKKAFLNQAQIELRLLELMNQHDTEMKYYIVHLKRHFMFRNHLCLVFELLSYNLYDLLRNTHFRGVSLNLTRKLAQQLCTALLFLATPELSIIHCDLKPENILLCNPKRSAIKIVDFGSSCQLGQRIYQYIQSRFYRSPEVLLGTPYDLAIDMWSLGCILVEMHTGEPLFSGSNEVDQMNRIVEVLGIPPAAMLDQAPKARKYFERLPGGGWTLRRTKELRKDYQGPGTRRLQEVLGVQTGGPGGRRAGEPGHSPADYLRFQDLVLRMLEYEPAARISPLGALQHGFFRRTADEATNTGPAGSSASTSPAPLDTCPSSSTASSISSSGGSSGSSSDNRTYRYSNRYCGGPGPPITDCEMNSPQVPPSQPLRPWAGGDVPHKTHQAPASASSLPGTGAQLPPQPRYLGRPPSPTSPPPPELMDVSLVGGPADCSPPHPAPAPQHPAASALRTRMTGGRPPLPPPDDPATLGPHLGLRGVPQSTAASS
Dual specificity testis-specific protein kinase 2, sequence (Q96S53 whole entry): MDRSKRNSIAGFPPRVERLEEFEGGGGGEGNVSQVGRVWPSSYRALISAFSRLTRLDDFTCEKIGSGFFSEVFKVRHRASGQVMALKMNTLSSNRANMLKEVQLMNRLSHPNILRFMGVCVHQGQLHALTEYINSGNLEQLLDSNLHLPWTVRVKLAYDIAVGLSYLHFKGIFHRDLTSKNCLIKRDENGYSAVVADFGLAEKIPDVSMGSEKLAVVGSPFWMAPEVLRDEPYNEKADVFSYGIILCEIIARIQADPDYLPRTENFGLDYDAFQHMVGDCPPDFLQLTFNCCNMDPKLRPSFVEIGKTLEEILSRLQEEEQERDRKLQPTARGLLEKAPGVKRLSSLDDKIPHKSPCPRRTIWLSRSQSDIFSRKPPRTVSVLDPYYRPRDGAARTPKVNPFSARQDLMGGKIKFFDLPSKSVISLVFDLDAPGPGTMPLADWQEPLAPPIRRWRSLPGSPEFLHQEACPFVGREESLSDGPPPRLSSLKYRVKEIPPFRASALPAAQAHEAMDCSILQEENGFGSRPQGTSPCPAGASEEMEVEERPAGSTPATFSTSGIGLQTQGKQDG
Serine/threonine-protein kinase 24, sequence (Q9Y6E0 whole entry): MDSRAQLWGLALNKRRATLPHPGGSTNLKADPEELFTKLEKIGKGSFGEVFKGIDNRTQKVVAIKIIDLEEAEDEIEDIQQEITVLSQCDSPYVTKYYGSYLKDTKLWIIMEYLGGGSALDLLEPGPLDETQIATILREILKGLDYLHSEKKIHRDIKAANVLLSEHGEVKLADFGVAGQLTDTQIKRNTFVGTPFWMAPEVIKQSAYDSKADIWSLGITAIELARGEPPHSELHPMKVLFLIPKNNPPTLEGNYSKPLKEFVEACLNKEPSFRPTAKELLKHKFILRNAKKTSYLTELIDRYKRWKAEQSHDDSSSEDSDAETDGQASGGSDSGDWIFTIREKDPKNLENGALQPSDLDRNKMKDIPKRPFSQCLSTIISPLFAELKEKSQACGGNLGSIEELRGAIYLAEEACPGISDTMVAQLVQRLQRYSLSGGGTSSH
Tyrosine-protein kinase Fgr, sequence (P09769 whole entry): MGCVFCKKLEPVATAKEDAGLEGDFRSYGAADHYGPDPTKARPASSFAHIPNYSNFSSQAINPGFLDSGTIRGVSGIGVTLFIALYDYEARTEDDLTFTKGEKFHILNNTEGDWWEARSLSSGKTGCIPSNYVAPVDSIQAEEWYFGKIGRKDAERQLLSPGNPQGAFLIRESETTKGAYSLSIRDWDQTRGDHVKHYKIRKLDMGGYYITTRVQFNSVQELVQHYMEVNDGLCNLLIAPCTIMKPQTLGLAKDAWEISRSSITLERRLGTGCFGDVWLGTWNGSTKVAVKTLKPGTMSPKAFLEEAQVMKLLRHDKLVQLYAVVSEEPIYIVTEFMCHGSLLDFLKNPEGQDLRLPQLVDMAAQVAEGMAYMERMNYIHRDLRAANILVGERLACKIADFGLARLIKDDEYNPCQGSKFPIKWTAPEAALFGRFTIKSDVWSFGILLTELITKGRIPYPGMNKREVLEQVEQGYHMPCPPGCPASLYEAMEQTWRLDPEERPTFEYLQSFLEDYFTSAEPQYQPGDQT
Nucleoside diphosphate kinase B, sequence (P22392 whole entry): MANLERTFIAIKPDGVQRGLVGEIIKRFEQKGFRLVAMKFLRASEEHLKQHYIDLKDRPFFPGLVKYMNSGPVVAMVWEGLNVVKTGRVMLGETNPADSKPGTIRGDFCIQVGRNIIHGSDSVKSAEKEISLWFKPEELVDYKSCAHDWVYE
Eukaryotic peptide chain release factor GTP-binding subunit ERF3B, sequence (Q8IYD1 whole entry): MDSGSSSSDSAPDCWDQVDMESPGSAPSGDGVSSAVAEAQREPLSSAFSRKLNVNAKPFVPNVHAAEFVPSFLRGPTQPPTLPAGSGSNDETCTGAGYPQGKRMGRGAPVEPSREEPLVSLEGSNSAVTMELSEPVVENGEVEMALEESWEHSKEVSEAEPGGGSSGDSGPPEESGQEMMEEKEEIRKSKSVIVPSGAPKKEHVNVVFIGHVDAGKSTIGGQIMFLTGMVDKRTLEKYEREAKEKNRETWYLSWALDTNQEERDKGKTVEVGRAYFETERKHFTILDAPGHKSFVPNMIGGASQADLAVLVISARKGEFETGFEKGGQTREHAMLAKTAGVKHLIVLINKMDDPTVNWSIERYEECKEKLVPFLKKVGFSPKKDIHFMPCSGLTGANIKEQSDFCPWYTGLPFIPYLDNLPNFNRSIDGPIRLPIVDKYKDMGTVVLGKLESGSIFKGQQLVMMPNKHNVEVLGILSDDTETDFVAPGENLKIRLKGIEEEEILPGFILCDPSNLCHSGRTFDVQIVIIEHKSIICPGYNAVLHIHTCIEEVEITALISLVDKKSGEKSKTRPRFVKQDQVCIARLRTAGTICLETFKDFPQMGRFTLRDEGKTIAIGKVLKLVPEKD

Kd [1] | Kd [2] | Kd [3] | Kd [4] | Kd [5] | Kd [6] | Kd [7] | Kd [8] | Kd [9] | Kd [10] | Kd [11] | Kd [12] | Kd [13] | Kd [14] | Kd [15] | Kd [16] | SMILES
– | – | > 30 µM (inactive) | – | – | 0.005 µM | > 30 µM (inactive) | > 30 µM (inactive) | – | – | – | – | – | – | – | – | Nc1ncnc2c1c(-c1cccc(OCc3ccccc3)c1)cn2[C@H]1C[C@@H](CN2CCC2)C1 [AEW-541]
> 30 µM (inactive) | – | – | > 30 µM (inactive) | > 30 µM (inactive) | – | > 30 µM (inactive) | > 30 µM (inactive) | – | – | > 30 µM (inactive) | > 30 µM (inactive) | > 30 µM (inactive) | – | – | – | Cc1csc(-c2nnc(Nc3ccc(Oc4ncccc4-c4ccnc(N)n4)cc3)c3ccccc23)c1 [AMG-900]
> 30 µM (inactive) | – | > 30 µM (inactive) | > 30 µM (inactive) | – | – | > 30 µM (inactive) | – | – | 0.009 µM | > 30 µM (inactive) | – | 0.015 µM (active) | – | – | – | O=C(Nc1c[nH]nc1-c1nc2cc(CN3CCOCC3)ccc2[nH]1)NC1CC1 [AT-9283]
– | – | – | – | – | – | – | > 30 µM (inactive) | – | – | – | > 30 µM (inactive) | > 30 µM (inactive) | > 30 µM (inactive) | – | – | Cc1cc(C(=O)NOCCO)c(Nc2ccc(I)cc2F)n(C)c1=O [AZD-8330]
> 30 µM (inactive) | > 30 µM (inactive) | > 30 µM (inactive) | – | > 30 µM (inactive) | > 30 µM (inactive) | – | – | – | – | – | > 30 µM (inactive) | > 30 µM (inactive) | – | – | – | CCn1c(C(=O)N(C2CC2)C2CC2)cc2c3c(ncn3C)c(Nc3cc(C)n(C)n3)nc21 [BMS-911543]
> 30 µM (inactive) | – | > 30 µM (inactive) | – | – | > 30 µM (inactive) | > 30 µM (inactive) | – | – | – | > 30 µM (inactive) | – | – | – | – | – | COCC(=O)NC/C=C/c1ccc2ncnc(Nc3ccc(Oc4ccc(C)nc4)c(C)c3)c2c1 [CP-724714]
– | – | – | – | – | – | > 30 µM (inactive) | – | 0.142 µM (active) | – | – | > 30 µM (inactive) | > 30 µM (inactive) | > 30 µM (inactive) | – | – | C#Cc1cccc(Nc2ncnc3cc(OC)c(OCCCCCCC(=O)NO)cc23)c1 [CUDC-101]
– | – | – | > 30 µM (inactive) | – | – | > 30 µM (inactive) | > 30 µM (inactive) | – | – | > 30 µM (inactive) | > 30 µM (inactive) | – | > 30 µM (inactive) | > 30 µM (inactive) | – | CCn1cc(-c2ccnc3[nH]c(-c4cccc(CN(C)C)c4)cc23)c(-c2ccc(NC(=O)N(C)C)cc2)n1 [GSK-1070916]
> 30 µM (inactive) | > 30 µM (inactive) | – | – | – | > 30 µM (inactive) | > 30 µM (inactive) | – | – | – | – | > 30 µM (inactive) | > 30 µM (inactive) | – | > 30 µM (inactive) | – | Cn1cc(-c2cnc3ccc4ccc(CS(=O)(=O)NCc5ccccn5)cc4c(=O)c3c2)cn1 [MK-8033]
> 30 µM (inactive) | – | – | 0.075 µM | – | > 30 µM (inactive) | – | > 30 µM (inactive) | – | > 30 µM (inactive) | > 30 µM (inactive) | – | – | – | – | 0.067 µM (active) | Cc1nc(Nc2n[nH]c3c2CN(C(=O)N[C@H](CN(C)C)c2ccccc2)C3(C)C)c2sccc2n1 [PF-03758309]

Continued, molecule first:

SMILES | Kd [1] | Kd [2] | Kd [3] | Kd [4] | Kd [5] | Kd [6] | Kd [7] | Kd [8] | Kd [9] | Kd [10] | Kd [11] | Kd [12] | Kd [13] | Kd [14] | Kd [15] | Kd [16]
CC(=O)c1cnc2ccc(-c3cc(Cl)c(O)c(Cl)c3)nc2c1N[C@H]1CC[C@H](CN(C)C)CC1 | > 30 µM (inactive) | > 30 µM (inactive) | > 30 µM (inactive) | – | – | – | – | – | – | – | – | – | – | – | – | –
COCc1c(-c2ccc(NC(=O)Nc3cc(C(F)(F)F)ccc3F)c(F)c2)c2c(N)ncnn2c1CN1CCOCC1 | > 30 µM (inactive) | – | > 30 µM (inactive) | > 30 µM (inactive) | > 30 µM (inactive) | > 30 µM (inactive) | – | – | – | – | – | – | – | – | – | –
COc1cc(Nc2ncc3c(n2)-c2ccc(Cl)cc2C(c2c(F)cccc2OC)=NC3)ccc1C(=O)O [ALISERTIB] | – | – | – | – | > 30 µM (inactive) | – | – | > 30 µM (inactive) | > 30 µM (inactive) | > 30 µM (inactive) | > 30 µM (inactive) | – | – | – | – | –
NC(=O)Nc1cc(-c2cccc(F)c2)sc1C(=O)N[C@H]1CCCNC1 [AZD-7762] | – | – | – | – | – | – | > 30 µM (inactive) | – | – | > 30 µM (inactive) | > 30 µM (inactive) | – | > 30 µM (inactive) | – | – | –
Cn1cnc2c(F)c(Nc3ccc(Br)cc3F)c(C(=O)NOCCO)cc21 [BINIMETINIB] | – | – | – | – | > 30 µM (inactive) | > 30 µM (inactive) | > 30 µM (inactive) | > 30 µM (inactive) | – | > 30 µM (inactive) | – | – | > 30 µM (inactive) | > 30 µM (inactive) | – | –
CC(C)(C)c1nc(-c2cccc(NS(=O)(=O)c3c(F)cccc3F)c2F)c(-c2ccnc(N)n2)s1 [DABRAFENIB] | > 30 µM (inactive) | > 30 µM (inactive) | – | – | > 30 µM (inactive) | – | > 30 µM (inactive) | > 30 µM (inactive) | – | > 30 µM (inactive) | > 30 µM (inactive) | – | – | 1.55 µM (active) | > 30 µM (inactive) | –
Cc1cccc(-c2nn3c(c2-c2ccnc4ccc(C(N)=O)cc24)CCC3)n1 [GALUNISERTIB] | > 30 µM (inactive) | > 30 µM (inactive) | > 30 µM (inactive) | – | > 30 µM (inactive) | > 30 µM (inactive) | > 30 µM (inactive) | – | – | – | > 30 µM (inactive) | – | – | – | > 30 µM (inactive) | –
CNC(=O)c1nn(C)c2c1C(C)(C)Cc1cnc(Nc3ccc(N4CCN(C)CC4)cc3)nc1-2 [MILCICLIB] | – | – | – | – | > 30 µM (inactive) | > 30 µM (inactive) | > 30 µM (inactive) | > 30 µM (inactive) | > 30 µM (inactive) | – | > 30 µM (inactive) | – | – | – | – | –
FC(F)(F)c1ccc(/C=C/c2nc(COc3ccc(CCCCn4ccnn4)cc3)co2)cc1 [MUBRITINIB] | – | – | – | – | > 30 µM (inactive) | > 30 µM (inactive) | > 30 µM (inactive) | – | > 30 µM (inactive) | > 30 µM (inactive) | > 30 µM (inactive) | – | – | – | – | –
N#CC1(c2ccc(NC(=O)c3cccnc3NCc3ccncc3)cc2)CCCC1 [RIVOCERANIB] | > 30 µM (inactive) | – | – | – | > 30 µM (inactive) | > 30 µM (inactive) | – | – | – | – | > 30 µM (inactive) | > 30 µM (inactive) | – | – | > 30 µM (inactive) | –
CN1CCN(CCOc2cc(OC3CCOCC3)c3c(Nc4c(Cl)ccc5c4OCO5)ncnc3c2)CC1 [SARACATINIB] | – | – | – | – | > 30 µM (inactive) | > 30 µM (inactive) | > 30 µM (inactive) | > 30 µM (inactive) | > 30 µM (inactive) | > 30 µM (inactive) | – | > 30 µM (inactive) | – | – | – | –
O=C(Cc1ccc(-c2ccc(OCCN3CCOCC3)cc2)cn1)NCc1ccccc1 [TIRBANIBULIN] | > 30 µM (inactive) | > 30 µM (inactive) | – | > 30 µM (inactive) | > 30 µM (inactive) | – | > 30 µM (inactive) | > 30 µM (inactive) | – | – | > 30 µM (inactive) | > 30 µM (inactive) | > 30 µM (inactive) | > 30 µM (inactive) | > 30 µM (inactive) | –
C[C@@H](NC(=O)c1ncnc(N)c1Cl)c1ncc(C(=O)Nc2cc(C(F)(F)F)c(Cl)cn2)s1 [TOVORAFENIB] | – | – | – | – | > 30 µM (inactive) | > 30 µM (inactive) | > 30 µM (inactive) | 0.146 µM | – | > 30 µM (inactive) | > 30 µM (inactive) | – | – | – | > 30 µM (inactive) | –
